A value given as a limit tells only on which side of the number the result lay.

This passage reports IC50 results from US20110059910A1, “Novel aromatic fluoroglycoside derivatives, pharmaceuticals comprising said compounds and the use thereof” (SANOFI-AVENTIS, priority 2008, published 2011).

The target in the experiment is T1, human sodium-dependent glucose transporter 1 (SGLT1, SLC5A1) (Homo sapiens, UniProt P13866).
T1 construct: Bases 11 to 2005 correspond to the complete coding region of human SGLT1; expressed in transfected cells
T1 sequence (P13866 1-664): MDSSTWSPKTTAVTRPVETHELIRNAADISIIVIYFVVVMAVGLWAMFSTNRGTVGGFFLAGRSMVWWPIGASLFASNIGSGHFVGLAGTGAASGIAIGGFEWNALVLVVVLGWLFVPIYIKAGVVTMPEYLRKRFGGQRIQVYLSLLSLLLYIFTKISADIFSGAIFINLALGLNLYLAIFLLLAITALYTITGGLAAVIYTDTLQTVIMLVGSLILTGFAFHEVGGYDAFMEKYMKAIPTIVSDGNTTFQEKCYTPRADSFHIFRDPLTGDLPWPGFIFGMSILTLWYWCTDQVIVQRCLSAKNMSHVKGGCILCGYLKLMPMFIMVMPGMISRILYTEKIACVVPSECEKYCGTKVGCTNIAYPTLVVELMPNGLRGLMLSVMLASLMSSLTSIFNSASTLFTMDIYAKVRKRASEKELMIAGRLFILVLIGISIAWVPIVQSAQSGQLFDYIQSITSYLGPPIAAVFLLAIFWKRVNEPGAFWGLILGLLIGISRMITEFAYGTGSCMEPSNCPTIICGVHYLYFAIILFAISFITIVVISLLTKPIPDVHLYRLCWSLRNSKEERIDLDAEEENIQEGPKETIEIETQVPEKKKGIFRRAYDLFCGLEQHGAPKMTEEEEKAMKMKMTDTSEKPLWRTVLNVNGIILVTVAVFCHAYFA
The experiment in a line: Inhibition of the transport activity of human SGLT1 in vitro (α-MDG uptake in CHO-TRex-hSGLT1 cells). It counts as cell-based. As to conditions: 50 μM α-MDG, 30 min at room temperature. The text has this: Inhibition of the Transport Activity of the Human Sodium-Dependent Glucose Transporter 1 (SGLT1, SLC5A1) In Vitro:
1. Cloning of an Expression Vector for Human SGLT1
The cDNA for human SGLT1 was introduced into the pcDNA4/TO vector (Invitrogen) by means of standard methods of molecular biology as described in Sambrook et al. (Molecular Cloning, A Laboratory Manual, Second Edition). […] Bases 11 to 2005 correspond to the complete coding region of human SGLT1.
2. Production of a Recombinant Cell Line with Inducible Expression of Human SGLT1
The expression vector for human SGLT1 was introduced into CHO-TRex cells (Invitrogen) by means of FuGene6 lipofection (Roche). To select single cell clones, 600 μg/ml of Zeocin (Invitrogen) was added to the cell culture medium (nutrient mixture F-12 (Ham), Invitrogen) supplemented with 10% fetal calf serum (BD Biosciences), 10 μg/ml Blasticidin S(CN Biosciences), 100 units/ml penicillin, 100 units/ml streptomycin). The functionality of the single cell clones resulting from the selection was tested via their uptake activity for radiolabeled methyl-α-D-glucopyranoside. That cell clone with the highest uptake activity for methyl-α-D-glucopyranoside, referred to hereinafter as CHO-TRex-hSGLT1, was selected for the further experiments and cultured further in the presence of 600 μg/ml Zeocin.
3. Measurement of the Inhibiting Action of Test Substances on the Uptake of methyl-α-D-glucopyranoside (α-MDG)
CHO-TRex-hSGLT1 cells were seeded in cell culture medium in a concentration of 50 000 cells per well in Cytostar-T scintillating 96-well plates (Amersham Biosciences) and cultivated for 24 h. The expression of the recombinant human SGLT1 was induced by adding 1 μg/ml tetracycline for a further 24 h. For α-MDG uptake experiments, the cells were washed with PBS and then starved at 37° C. in starvation medium (PBS supplemented with 10% fetal calf serum) for 1 hour. After a further washing step with transport assay buffer (140 mM sodium chloride, 2 mM potassium chloride, 1 mM magnesium chloride, 1 mM calcium chloride, 10 mM HEPES/Tris, pH 7.5), the cells were incubated at room temperature either in the absence or presence of test substances of different concentration for 15 min. The test substances were diluted correspondingly in transport assay buffer proceeding from a 10 mM stock solution in dimethyl sulfoxide (40 μl/well). The assay was subsequently started by adding 10 μl of a mixture of radiolabeled methyl-α-D-[U-^14C]glucopyranoside (Amersham) and unlabeled methyl-α-D-glucopyranoside (Acros). The final concentration of methyl-α-D-glucopyranoside in the assay was 50 μM. After an incubation time of 30 min at room temperature, the reaction was stopped by adding 50 μl/well of 10 mM methyl-α-D-glucopyranoside in transport assay buffer (4° C.), and the radioactivity taken up into the cells was determined in a MicroBeta Scintillation Microplate Reader (Wallac).
The half-maximum inhibiting action of the test substances (IC50 value) was determined as follows: • 4. Determination of the value for 0% inhibition. This is the measurement in the absence of substance, measured in sodium-containing transport assay buffer. • 5. Determination of the value for 100% inhibition. This is the measurement in the absence of substance, measured in sodium-free transport assay buffer (140 mM choline chloride, 2 mM potassium chloride, 1 mM magnesium chloride, 1 mM calcium chloride, 10 mM HEPES/Tris, pH7.5). • 6. Calculation of the percentage inhibition values of those measurements which were carried out in the presence of different concentrations of test substance. From this, it was then possible to determine that concentration of the test substance which reduces the uptake of the methyl-α-D-glucopyranoside by 50% (IC50 value).
Consider `CCOC(=O)OCC1OC(c2ccc(Cl)c(Cc3ccc(OCC)cc3)c2)C(O)C(O)C1F` (centres unmarked) [Example 16], for which it took 25 µM to reach half-maximal inhibition (IC50).

With `COc1ccc(Cc2cc(C3OC(CO)C(F)(F)C(O)C3O)ccc2Cl)nc1` (centres unmarked) [Example 38], the IC50 (in general, the point on the concentration scale where inhibition reaches its midpoint) was determined as 26.5 µM. In turn, `CCOc1ccc(Cc2cc(C3OC(CO)C(F)(F)C(O)C3O)ccc2Cl)cc1` (centres unmarked) [Example 2] came in with an IC50 of 8 µM. Regarding `CC(C)Oc1ccc(Cc2cc([C@@H]3O[C@H](CO)C(F)(F)[C@H](O)[C@H]3O)ccc2Cl)cc1` [Example 31], half-maximal inhibition (IC50) was put at 12 µM. To `CCOC(=O)OC[C@H]1O[C@@H](c2ccc(OC(F)(F)F)c(Cc3ccc(OC)cc3)c2)[C@H](O)[C@@H](O)C1(F)F` [Example 41] belongs 11.8 µM; to `COc1ccc(Cc2cc(C3OC(CO)C(F)C(O)C3O)ccc2Br)cc1` (centres unmarked) [Example 56], 0.18 µM. With `OCC1OC(c2ccc(Cl)c(Cc3ccc(OC(F)(F)F)cc3)c2)C(O)C(O)C1F` (centres unmarked) [Example 25], half-maximal inhibition (IC50) was put at 3.5 µM. To `COc1ccc(Cc2cc([C@@H]3O[C@H](CO)[C@@H](F)[C@H](O)[C@H]3O)ccc2OC(F)(F)F)cc1` [Example 40] belongs 0.232 µM; to `COc1ccc(Cc2cc(C3OC(CO)C(F)(F)C(O)C3O)ccc2F)cc1` (centres unmarked) [Example 11], 16 µM; to `COc1ccc(Cc2cc([C@@H]3O[C@H](CO)C(F)(F)[C@H](O)[C@H]3O)ccc2OC(F)(F)F)cc1` [Example 42], 3.3 µM. To `OC[C@H]1O[C@@H](c2ccc(Cl)c(Cc3ccc(Cl)cc3)c2)[C@H](O)[C@@H](O)[C@@H]1F` [Example 44] belongs 0.331 µM; to `CCc1ccc(Cc2cc(C3OC(CO)C(F)C(O)C3O)ccc2C)cc1` (centres unmarked) [Example 61], 0.461 µM. In turn, `CCOC(=O)OCC1OC(c2ccc(Cl)c(Cc3ccc(OCC)cc3)c2)C(O)C(O)C1(F)F` (centres unmarked) [Example 18] yielded a half-inhibitory concentration (IC50) of 42 µM. Molecule `CCOC(=O)OCC1OC(c2ccc(Cl)c(Cc3ccc(OC(F)(F)F)cc3)c2)C(O)C(O)C1(F)F` (centres unmarked) [Example 26] gave a 50% inhibitory concentration (IC50) of over 10 µM.

Regarding `COc1ccc(Cc2cc(C3OC(CO)C(F)C(O)C3O)ccc2OC)cc1` (centres unmarked) [Example 13], half-maximal inhibition (IC50) was put at 0.152 µM.

As for `COc1ccc(Cc2cc(C3OC(CO)C(F)(F)C(O)C3O)ccc2C)cc1` (centres unmarked) [Example 34], the IC50 was 1.5 µM. As for `CCOC(=O)OCC1OC(c2ccc(OC)c(Cc3ccc(OC)cc3)c2)C(O)C(O)C1F` (centres unmarked) [Example 12], the figure is 1.5 µM; as for `COc1ccc(Cc2cc(C3OC(CO)C(F)(F)C(O)C3O)ccc2Cl)cc1` (centres unmarked) [Example 22], 1.4 µM. To `CCOC(=O)OCC1OC(c2ccc(Cl)c(Cc3ccc(OC)cc3)c2)C(O)C(O)C1(F)F` (centres unmarked) [Example 21] belongs 50 µM; to `OC[C@H]1O[C@@H](c2ccc(Cl)c(Cc3ccc(O)cc3)c2)[C@H](O)[C@@H](O)C1(F)F` [Example 30], 1.2 µM; to `CCc1ccc(Cc2cc(C3OC(CO)C(F)C(O)C3O)ccc2Cl)s1` (centres unmarked) [Example 6], 0.475 µM. As for `COc1ccc(Cc2cc(C3OC(CO)C(F)C(O)C3O)ccc2F)cc1` (centres unmarked) [Example 9], the figure is 3.6 µM; as for `COc1ccc(Cc2cc([C@@H]3O[C@H](CO)C(F)(F)[C@H](O)[C@H]3O)ccc2C(F)(F)F)cc1` [Example 50], 7.3 µM; as for `CCOC(=O)OC[C@H]1O[C@@H](c2ccc(OC(F)(F)F)c(Cc3ccc(OC)cc3)c2)[C@H](O)[C@@H](O)[C@@H]1F` [Example 39], 22.8 µM.

In the case of `OCC1OC(c2ccc(Cl)c(Cc3ccc(OC(F)(F)F)cc3)c2)C(O)C(O)C1(F)F` (centres unmarked) [Example 27], 16 µM corresponded to half-maximal inhibition (IC50). `COc1ccc(Cc2cc(C3OC(CO)C(F)(F)C(O)C3O)ccc2OC)cc1` (centres unmarked) [Example 15]: the IC50 was determined as 0.611 µM. `CCc1ccc(Cc2cc(C3OC(CO)C(F)C(O)C3O)ccc2Cl)cc1` (centres unmarked) [Example 3] displayed an IC50 of 0.97 µM.

The molecule `COc1ccc(Cc2cccc(C3OC(CO)C(F)C(O)C3O)c2)cc1` (centres unmarked) [Example 5] yielded a half-inhibitory concentration (IC50) of 0.174 µM.

`CCc1ccc(Cc2cc(C3OC(CO)C(F)(F)C(O)C3O)ccc2Cl)cc1` (centres unmarked) [Example 1] came in with a 50% inhibitory concentration (IC50) of 8 µM. `CCOc1ccc(Cc2cc(C3OC(CO)C(F)C(O)C3O)ccc2Cl)cc1` (centres unmarked) [Example 17] yielded a half-inhibitory concentration (IC50) of 0.757 µM.

`CCOC(=O)OCC1OC(c2ccc(Cl)c(Cc3ccc(OC)cn3)c2)C(O)C(O)C1F` (centres unmarked) [Example 35] registered a 50% inhibitory concentration (IC50) of 4.3 µM.

Turning to `CCOC(=O)OCC1OC(c2ccc(Cl)c(Cc3ccc(OC)cn3)c2)C(O)C(O)C1(F)F` (centres unmarked) [Example 37], the half-maximal inhibitory concentration (IC50) was 23.4 µM.

`COc1ccc(Cc2cc(C3OC(CO)C(F)C(O)C3O)ccc2Cl)nc1` (centres unmarked) [Example 36] registered an IC50 of 2.7 µM. To `CCOC(=O)OCC1OC(c2ccc(Cl)c(Cc3ccc(OC(F)(F)F)cc3)c2)C(O)C(O)C1F` (centres unmarked) [Example 24] belongs 23 µM; to `COc1ccc(Cc2cc([C@@H]3O[C@H](CO)[C@@H](F)[C@H](O)[C@H]3O)ccc2C(F)(F)F)cc1` [Example 48], 0.24 µM.

For `Cc1ccc(C2OC(CO)C(F)(F)C(O)C2O)cc1Cc1ccc(O)cc1` (centres unmarked) [Example 33], 2.6 µM corresponded to half-maximal inhibition (IC50). Take `OC[C@H]1O[C@@H](c2ccc(Cl)c(Cc3ccc(Cl)cc3)c2)[C@H](O)[C@@H](O)C1(F)F` [Example 46]: the half-inhibitory concentration (IC50) was 2.6 µM. Molecule `CCOC(=O)OC[C@H]1O[C@@H](c2ccc(C(F)(F)F)c(Cc3ccc(OC)cc3)c2)[C@H](O)[C@@H](O)C1(F)F` [Example 49] showed an IC50 of over 100 µM. `CCOC(=O)OCC1OC(c2ccc(F)c(Cc3ccc(OC)cc3)c2)C(O)C(O)C1F` (centres unmarked) [Example 8] came in with an IC50 of 6.6 µM. For `OCC1OC(c2ccc(Cl)c(Cc3cc4ccccc4s3)c2)C(O)C(O)C1F` (centres unmarked) [Example 7], the midpoint of inhibition, the IC50, lay at 1.3 µM. `CCOC(=O)OCC1OC(c2ccc(F)c(Cc3ccc(OC)cc3)c2)C(O)C(O)C1(F)F` (centres unmarked) [Example 10] gave an IC50 of 13 µM.
